Patent US20030134342A1, “Binding-specific peptides, binding-specific carrier molecules, and uses thereof” (priority 2001, published 2003)
Where a SMILES comes first, the peptide text is derived from it.

Assays:
CML cells = test: ELISA binding of phage displaying peptides to fixed cells: CML cells; parameters: species or system human; details: in words
Procedure: (§1) Preliminary experiments were performed to identify specific peptides by using cells from patients diagnosed with CLL, CML, and AML. The screening was performed by incubating the cells with the phage-peptides from the library. This incubation allows interaction between the peptide and the cell. The binding step was followed by several washes to eliminate free phage. Phage bound on the cell surface was eluted.
(§2) After the last round of binding with one cell type, the eluted phage was plated on an agar plate with the appropriate selection antibiotics. Each individual colony, corresponding to one individual peptide sequence, was amplified in a 96-well plate. After purification, these peptides were tested for their ability to bind to the cells in a microtiter plate by ELISA.
(§3) Each peptide was dispensed in a 96-well plate, containing cells previously fixed. Each colony was tested in a triplicate assay with the appropriate controls. After incubation of cells with an individual clone, the wells were washed to eliminate free phage. The bound phages were detected by using a monoclonal anti-M13 antibody/horseradish peroxidase (HRP) conjugate. After addition of the HRP substrate, the intensity of the coloration was measured by spectrophotometry. The light absorbance values (optical density values, O.D. values) are proportional to the number of phage bound to the cells.
(§4) The binding to various cell types were examined to evaluate the cellular specificity of the phage clones. For example, the clones from phage eluted from CLL patient cells were assayed for their ability to bind cells from an AML patient. Cells from normal donors (non-leukemic) were also evaluated to ascertain leukemia cell specificity.
(§5) Peripheral blood and bone marrow samples were collected from patients after informed consent. The samples were collected in tubes containing sodium citrate. Mononuclear cells were isolated by Ficoll-Hypaque density gradient separation and collection of the cells at a density of 1.077 g/mL.
(§6) The wells of a 96-well plate were pre-treated with 100 μL of poly-L-lysine (0.01 mg/mL in phosphate-buffered saline, 120 mM NaCl, 2.7 mM KCl, 10 mM phosphate buffer, “PBS”) for 2-16 hours at room temperature. After draining the poly-L-lysine from the wells, the excess poly-L-lysine was removed from the wells by flicking. The cells were washed with PBS, then suspended in PBS and diluted to a final concentration of […]. The cell suspension (200 μL; 250,000 cells) were added to each well needed for the assay.
(§7) The plates were centrifuged at 500 g for about 5 minutes in a microplate carrying centrifuge when available. The cells were fixed to the wells through the addition of glutaraldehyde (100 μL of 0.5%) and incubating at room temperature for about an hour. The glutaraldehyde was removed and the cell-coated wells washed once with PBS. Alternatively, the cells were permitted to settle to the well bottoms for about 4 hours at 37° C., and the glutaraldehyde fixative was added after removing the PBS.
(§8) A glycine solution (200 μl of 0.1 M glycine in PBS) containing bovine serum albumin (BSA; 1%) was added to the wells and permitted to incubate for 30 minutes to block excess glutaraldehyde. The glycine was removed, and the cell-coated wells washed once with PBS. A sodium pyrophosphate solution (200 μL of 0.3 mg/mL NaPPi) was added to the wells and incubated for an hour at room temperature to neutralize lysine charges. The pyrophosphate solution was removed and the wells washed once with PBS. Multiwell microtiter plates with cell-coated wells were stored at 4° C. with fresh PBS solution in the coated wells.
(§9) The cells to be studied for binding were suspended in PBS and adsorbed onto to a poly-L-lysine pretreated 96-well plate and kept at 4° C. The PBS was removed from the wells and an H2O2 solution in PBS (6% H2O2 in 200 μL/well) was added. […]

AML cells = test: ELISA binding of phage displaying peptides to fixed cells: AML cells; parameters: species or system human; details: in words
Procedure: as §1, §2, §3, §4, §5, §6, §7, §8, §9

cord blood cells = test: ELISA binding of phage displaying peptides to fixed cells: cord blood cells; parameters: species or system human; details: in words
Procedure: as §1, §2
as §3, with “Each colony was tested in a triplicate assay with the appropriate controls. After incubation of cells with an individual clone, the wells were washed to eliminate free phage.” left out
(§10) The binding to various cell types were examined to evaluate the cellular specificity of the phage clones. […] Cells from normal donors (non-leukemic) were also evaluated to ascertain leukemia cell specificity. […]

[1] = system: human myeloid leukemia cell line HL60; test: Differentiation of HL60 cells; type: cell-based
[2] = system: human myeloid leukemia cell line HL60; test: Differentiation of HL60 cells; type: cell-based; remark: listed apart in the source
Text: FIG. 1 illustrates the effects of several peptides on the differentiation of the human myeloid leukemia cell line HL60.
(§11) Such inhibition is not the result of the killing of the cells. The data are graphed in the Figures.
(§12) DMSO, dimethylsulfoxide, is a chemical that induces HL60 cellular differentiation.
The level of differentiation of the HL60 cells after 5 or 7 days growth in the presence or absence of the various phage and peptides combinations described above are shown in FIG. 1. The high level of differentiation that has been achieved is notable from the graph in FIG. 1. The levels of differentiation in the presence of peptide exceed that produced by the presence of phage alone.

[3] = system: human myeloid leukemia cell line HL60; test: Viability of HL60 cells, trypan blue; type: cell-based; details: for Day 5 Viability: 5 day; for Day 7 Viability: 7 day; for Day 9 Viability: 9 day
Procedure: (§13) Studies were conducted of the effects of the free G5 12-8B (artificially synthesized), phage displaying G5 12-8B, the free A2 11-24 peptide, phage displaying the A2 11-24 peptide, a combination of the free G5 and A2 peptides, a combination of pure peptides plus phage displaying the peptides, and several concentrations of peptide.

[4] = system: human myeloid leukemia cell line HL60; test: Proliferation of HL60 cells: cell number after 7 days culture; type: cell-based; details: for No. Cells: HL60, after 7 days; for Percent relative to Controls: HL60 cell number after 7 days
Text: The number of cells after 7 days culture growth were counted in the presence or absence of the different molecules. Results are shown for the free G5 12-8B peptide alone (artificially synthesized), phage displaying G5 12-8B, the free A2 11-24 peptide, phage displaying the A2 11-24 peptide, a combination of the free G5 and A2 peptides, a combination of the free pure with phage displaying the peptides, and several concentrations of peptide.
as §11
The control number of cells per milliliter (2.6) is an average of results from dual controls (2.6×10^6).
as §12

[5] = system: human bone marrow AML cells; test: Effect of phage-peptides on differentiation, cell number and viability of freshly obtained AML patient bone marrow cells cultured seven days; type: cell-based; details: for Number of Cells / Percent Differentiation: phage-peptides; for Percent differentiated in Specimen 1 / Percent differentiated in Specimen 2: peptides in bacteriophage, AML cells cultured seven days in vitro
Text: The effect of various phage-peptides were studied on the differentiation of cells from two AML patients.

CLL cells = test: ELISA binding of phage displaying peptides to fixed cells: CLL cells; parameters: species or system human; details: in words
Procedure: as §1, §2, §3, §4, §5, §6, §7, §8, §9

AML bone marrow cells = test: Methylcellulose culture of AML bone marrow cells with peptides: proliferation (colonies) and differentiation (morphology); type: cell-based, human; details: patient numbers
Procedure: The effect of various peptides were analyzed for their biological activity on cells from a patient with acute myelogenous leukemia. The AML cells were cultured into a semi-solid medium of methylcellulose in order to determine the cloning efficiency and the differentiation of the cells. The various peptides were introduced into the semi-solid cell culture at a concentration of 10^−4 M (0.1 mM) peptide. After 14 days continuous incubation of the cell cultures, the morphology of the cells were analyzed. The data are shown in FIG. 7 for the cultures and show the percentage of immature cells in the culture (solid black), the percentage of small myeloblasts (solid white), the percentage of young cells (dark gray), and the relative percentage of monocytes to […] (light gray). The data regarding the biological response of AML bone marrow cells in the presence of the various peptides is shown in the table below.

CD34+ cells = test: ELISA binding of phage displaying peptides to fixed cells: CD34+ cells; parameters: species or system human; details: in words
Procedure: as §1, §2
as §3, with “Each colony was tested in a triplicate assay with the appropriate controls. After incubation of cells with an individual clone, the wells were washed to eliminate free phage.” left out
as §10

[6] = Viability of HL60 cells, trypan blue; type: cell-based; details: human
Procedure: as §13

normal bone marrow cells = test: ELISA binding of phage displaying peptides to fixed cells: normal bone marrow; parameters: species or system human; details: in words
Procedure: as §1, §2
as §3, with “Each colony was tested in a triplicate assay with the appropriate controls. After incubation of cells with an individual clone, the wells were washed to eliminate free phage.” left out
as §10

VSEDIYDA [E11 12-8B]
binding of phage displaying the peptide to CML cells (CML cells): bind
binding of phage displaying the peptide to AML cells (AML cells): bind
binding of phage displaying the peptide to cord blood cells (cord blood cells): bind

NCCCC[C@H](NC(=O)CNC(=O)[C@H](CO)NC(=O)[C@H](Cc1c[nH]c2ccccc12)NC(=O)[C@H](CCC(N)=O)NC(=O)[C@H](CCC(N)=O)NC(=O)[C@H](Cc1ccccc1)NC(=O)[C@H](CCC(=O)O)NC(=O)[C@@H](N)CS)C(=O)N[C@@H](CS)C(=O)O [G5 12-8B peptide] (H-CEFQQWSGKC-OH; N-terminus and C-terminus assumed)
Day 9 % Diff. ([1]; free peptide at 10^−4 M): 22%
Day 5 % Diff. ([2]; free peptide at 10^−4 M): 22%
Day 5 % Diff., figure in parentheses ([2]; free peptide at 10^−4 M): 183%
Day 7 % Diff. ([2]; free peptide at 10^−4 M): 31%
Day 7 % Diff., figure in parentheses ([2]; free peptide at 10^−4 M): 194%
Day 5 Viability [3]: 98%
Day 7 Viability [3]: 96%
Day 9 Viability [3]: 90%
No. Cells ([4]; free peptide at 10^−4 M): 1.2 10^6 cell/mL
Percent relative to Controls ([4]; free peptide at 10^−4 M): 48%

IEETARKG [A2 11-24 phage]
Day 9 % Diff. ([1]; phage 75): 64%
Day 5 % Diff. ([2]; phage 75): 18%
Day 5 % Diff., figure in parentheses ([2]; phage 75): 150%
Day 7 % Diff. ([2]; phage 75): 52%
Day 7 % Diff., figure in parentheses ([2]; phage 75): 325%
No. Cells ([4]; phage 75): 1.6 10^6 cell/mL
Percent relative to Controls ([4]; phage 75): 62%
Number of Cells ([5]; Patient 1): 0.75 106
Percent Differentiation ([5]; Patient 1): 79.2%
Number of Cells ([5]; Patient 2): 0.33 106
Percent Differentiation ([5]; Patient 2): 49.5%
Percent differentiated in Specimen 1 [5]: 79%
Percent differentiated in Specimen 2 [5]: 50%

CIEETARKGC [A2 11-24]
binding of phage displaying the peptide to CLL cells (CLL cells): not
Activation of Differentiation (AML bone marrow cells): 3
binding of phage displaying the peptide to CD34+ cells (CD34+ cells): bind
binding of phage displaying the peptide to CML cells (CML cells): bind
binding of phage displaying the peptide to AML cells (AML cells): bind

C[S+](C)[O-] [DMSO, dimethylsulfoxide, reference compound]
Day 9 % Diff. ([1]; concentration not given): off scale
Day 5 % Diff. ([2]; concentration not given): off scale
Day 7 % Diff. ([2]; concentration not given): off scale
viability at 5 days [6]: 98%
viability at 7 days [6]: 97%
viability at 9 days [6]: 82%
No. Cells ([4]; concentration not given): 0.9 10^6 cell/mL
Percent relative to Controls ([4]; concentration not given): 30%

CC[C@H](C)[C@H](NC(=O)[C@@H](N)CS)C(=O)N[C@@H](CCC(=O)O)C(=O)N[C@@H](CCC(=O)O)C(=O)N[C@H](C(=O)N[C@@H](C)C(=O)N[C@@H](CCCNC(=N)N)C(=O)N[C@@H](CCCCN)C(=O)NCC(=O)N[C@@H](CS)C(=O)O)[C@@H](C)O [A2 11-24 peptide] (H-CIEETARKGC-OH; N-terminus and C-terminus assumed)
Day 9 % Diff. ([1]; free peptide at 10^−4 M): 25%
Day 5 % Diff. ([2]; free peptide at 10^−4 M): 18%
Day 5 % Diff., figure in parentheses ([2]; free peptide at 10^−4 M): 150%
Day 7 % Diff. ([2]; free peptide at 10^−4 M): 30%
Day 7 % Diff., figure in parentheses ([2]; free peptide at 10^−4 M): 188%
Day 5 Viability [3]: 100%
Day 7 Viability [3]: 96%
Day 9 Viability [3]: 87%
No. Cells ([4]; free peptide at 10^−4 M): 2.0 10^6 cell/mL
Percent relative to Controls ([4]; free peptide at 10^−4 M): 77%

KRGIHPES [B3 9-1-01 no Cys]
binding of phage displaying the peptide to AML cells (AML cells): not
binding of phage displaying the peptide to normal bone marrow (normal bone marrow cells): bind

EFQQWSGK [G5 12-8B phage]
Day 9 % Diff. ([1]; phage 75): 46%
Day 5 % Diff. ([2]; phage 75): 17%
Day 5 % Diff., figure in parentheses ([2]; phage 75): 142%
Day 7 % Diff. ([2]; phage 75): 46%
Day 7 % Diff., figure in parentheses ([2]; phage 75): 288%
No. Cells ([4]; phage 75): 3.8 10^6 cell/mL
Percent relative to Controls ([4]; phage 75): 140%
Number of Cells ([5]; Patient 1): 1.11 106
Percent Differentiation ([5]; Patient 1): 27.9%
Number of Cells ([5]; Patient 2, listed as GS-12-8B): 0.31 106
Percent Differentiation ([5]; Patient 2, listed as GS-12-8B): 61%
Percent differentiated in Specimen 1 [5]: 28%
Percent differentiated in Specimen 2 [5]: 61%
